Measured values from patent publication US5525600A, “(Thiophen-2-yl)-piperidin or tetrahydropyridin carboxamides” (American Home Products Corporation, priority 1994, dated 1996).
Where a name gives a salt, the structure may show the parent alone. Read-outs that look alike come from different tables or passages of the source.

Target: T1, 5-HT1A serotonin receptor (Rattus norvegicus, UniProt P19327)
T1 sequence (P19327 1-422): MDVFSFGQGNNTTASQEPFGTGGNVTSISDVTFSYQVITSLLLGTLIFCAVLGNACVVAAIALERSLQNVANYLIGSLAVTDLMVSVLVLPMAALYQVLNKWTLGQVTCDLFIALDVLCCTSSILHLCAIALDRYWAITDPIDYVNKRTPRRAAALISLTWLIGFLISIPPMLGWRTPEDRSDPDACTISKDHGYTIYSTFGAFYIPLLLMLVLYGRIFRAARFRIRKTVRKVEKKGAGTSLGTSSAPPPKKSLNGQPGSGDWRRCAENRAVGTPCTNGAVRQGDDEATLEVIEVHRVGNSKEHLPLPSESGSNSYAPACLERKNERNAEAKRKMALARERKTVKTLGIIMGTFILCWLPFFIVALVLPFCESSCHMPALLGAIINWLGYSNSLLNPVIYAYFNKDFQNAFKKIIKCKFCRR
Assay: biochemical
Format: binding

[1] = displacement of [^3 H]8-OHDPAT, read-out: 5-HT1A Binding (IC50)

Row | IC50 [1] [nM] | Compound | IC50 [nM] | also measured
1 | – | COc1ccsc1C1(O)CCN(CCC(C(=O)N2CCCCCC2)c2ccccc2)CC1 (stereo not drawn) [Example 1, 1-Azepan-1-yl-4-[4-hydroxy-4-(3-methoxy-thiophen-2-yl)-piperidin-1-yl]-2-phenyl-butan-1-one 0.75 hydroiodide] | 0.8 | –
2 | – | COc1ccsc1C1=CCN(CCC(C(=O)N2CCCCCC2)c2ccccc2)CC1 (stereo not drawn) [Example 2, 1-Azepan-1-yl-4-[4-(3-methoxy-thiophen-2-yl)-1,2,3,6-tetrahydro-pyridin-1-yl]-2-phenyl-butan-1-one] | 0.25 | –
3 | 0.98 | COc1ccsc1C1CCN(CCC(C(=O)N2CCCCCC2)c2ccccc2)CC1 (stereo not drawn) [Example 3, 1-Azepan-1-yl-4-[4-(3-methoxy-thiophen-2-yl)-piperidin-1-yl]-2-phenyl-butan-1-one fumarate salt] | – | –
4 | – | COc1ccsc1C1=CCN(CC[C@H](C(=O)N2CCCCCC2)c2ccccc2)CC1 [Example 4, (S)-1-Azepan-1-yl-4-[4-(3-methoxy-thiophen-2-yl)-1.2.3.6-tetrahydro-pyridin-1-yl]-2-phenyl-butan-1-one hydrochloride salt] | 0.2 | –
5 | 0.7 | COc1ccsc1C1CCN(CC[C@H](C(=O)N2CCCCCC2)c2ccccc2)CC1 [Example 5, (2S)-1-(Azepan-1-yl)-4-[4-(3-methoxy-thiophen-2-yl)-piperidin-1-yl]-2-phenyl-butan-1-one dihydrochloride salt] | – | –
6 | – | O=C1CC2(CCCC2)CC(=O)N1CCCCN1CCN(c2ncccn2)CC1 [buspirone, reference compound] | – | affinity for the serotonin 5-HT1A receptor (in words) (displacement of [^3 H]8-OHDPAT): potent affinity
